Data taken from PubChem BioAssay (NCI).
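Cells were grown in 96-well plates and exposed to each compound for 48 hours at five concentrations; endpoints were interpolated linearly between bracketing concentrations, or set to the highest concentration if not reached. The concentration for 50% growth inhibition is given as GI50. TGI denotes the concentration required for complete inhibition of growth.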

Legend:
Test in all cases: growth of human tumour cells (NCI), 48 h
[1] = test system: ACHN renal
[2] = test system: HOP-92 NSCLC
[3] = test system: HT29 colon
[4] = test system: KM12 colon
[5] = test system: NCI-H23 lung
[6] = test system: OVCAR-5 ovarian
[7] = test system: RPMI-8226 leukemia
[8] = test system: SK-MEL-2 melanoma
[9] = test system: SR leukemia

CCN(CC)CCOc1ccc(C(=C2CCCCC2)c2ccc(OCCN(CC)CC)cc2)cc1
TGI [1]: 3.18 µM | TGI [2]: 3.94 µM | TGI [3]: 2.32 µM | TGI [4]: 2.57 µM | TGI [5]: 3.56 µM | TGI [6]: 3.37 µM | TGI [7]: 4.94 µM | TGI [8]: 3.52 µM

BrC12c3ccccc3Sc3ccccc3C1(Br)c1ccccc12 (configuration not stated)
TGI [1]: > 100 µM | TGI [2]: 60.5 µM | TGI [3]: > 100 µM | TGI [4]: 38.9 µM | TGI [6]: 86.2 µM | TGI [7]: 36.4 µM | TGI [8]: 34.5 µM | TGI [9]: 41.4 µM

N#CC1=C(c2ccccc2)C(O)(c2ccccc2)NC1=O (configuration not stated)
TGI [1]: > 100 µM | TGI [2]: 75.2 µM | TGI [3]: > 100 µM | TGI [4]: > 100 µM | TGI [5]: > 100 µM | TGI [6]: 90.1 µM | TGI [7]: > 100 µM | TGI [8]: > 100 µM | TGI [9]: > 100 µM

CCOC(=O)/C=C/c1ccccn1
TGI [1]: > 100 µM | TGI [2]: > 100 µM | TGI [3]: > 100 µM | TGI [4]: > 100 µM | TGI [5]: > 100 µM | TGI [6]: > 100 µM | TGI [7]: > 100 µM | TGI [8]: > 100 µM | TGI [9]: > 100 µM

CN(C)/C=N/c1nc2ncn(CCOC(=O)c3ccccc3)c2c(=O)[nH]1
TGI [1]: > 100 µM | TGI [2]: > 100 µM | TGI [3]: > 100 µM | TGI [4]: > 100 µM | TGI [6]: > 100 µM | TGI [7]: > 100 µM | TGI [8]: > 100 µM | TGI [9]: > 100 µM

O=C1C(N2C(=O)c3ccccc3C2=O)CN1C(COCc1ccccc1)c1ccc(OCc2ccccc2)cc1 (configuration not stated)
TGI [1]: > 100 µM | TGI [2]: > 100 µM | TGI [3]: > 100 µM | TGI [4]: > 100 µM | TGI [5]: > 100 µM | TGI [6]: > 100 µM | TGI [7]: > 100 µM | TGI [9]: > 100 µM

COc1ccc(/C(C)=N/NC(N)=S)c(OC)c1
TGI [1]: > 100 µM | TGI [2]: > 100 µM | TGI [3]: > 100 µM | TGI [4]: > 100 µM | TGI [5]: > 100 µM | TGI [6]: > 100 µM | TGI [7]: > 100 µM | TGI [8]: > 100 µM | TGI [9]: > 100 µM

Oc1cc2c(cc1O)-c1[nH]ncc1CC2
TGI [1]: > 100 µM | TGI [2]: 66.4 µM | TGI [3]: > 100 µM | TGI [4]: > 100 µM | TGI [5]: > 100 µM | TGI [6]: > 100 µM | TGI [8]: > 100 µM | TGI [9]: > 100 µM

O=C([O-])c1ccccc1Nc1ccccc1[O-].[Ni+3].[OH3+].[OH3+].[OH3+]
GI50 [1]: > 100 µM | TGI [1]: > 100 µM | GI50 [2]: 31.4 µM | TGI [2]: > 100 µM | GI50 [3]: > 100 µM | TGI [3]: > 100 µM | GI50 [4]: > 100 µM | TGI [4]: > 100 µM | GI50 [5]: > 100 µM | TGI [5]: > 100 µM | GI50 [6]: > 100 µM | TGI [6]: > 100 µM | GI50 [7]: > 100 µM | TGI [7]: > 100 µM | GI50 [8]: > 100 µM | TGI [8]: > 100 µM | GI50 [9]: > 100 µM | TGI [9]: > 100 µM

COC(=O)C(Cc1nc2ccccc2[nH]c1=O)C(=O)C(=O)Nc1ccc(OC)cc1[N+](=O)[O-] (configuration not stated)
TGI [1]: > 100 µM | TGI [2]: > 100 µM | TGI [3]: > 100 µM | TGI [4]: > 100 µM | TGI [5]: > 100 µM | TGI [6]: > 100 µM | TGI [7]: > 100 µM | TGI [8]: > 100 µM | TGI [9]: > 100 µM

O=C(O)C1OC(Oc2cc(O)c3c(=O)cc(-c4ccc(O)cc4)oc3c2)C(O)C(O)C1O (configuration not stated)
TGI [1]: > 100 µM | TGI [3]: > 100 µM | TGI [4]: > 100 µM | TGI [5]: > 100 µM | TGI [6]: > 100 µM | TGI [8]: > 100 µM

CC(O[Si](C)(C)C)C1C=CC(C)n2c(=O)n(-c3ccccc3)c(=O)n21 (configuration not stated)
TGI [3]: > 100 µM | TGI [4]: > 100 µM | TGI [5]: > 100 µM | TGI [6]: > 100 µM | TGI [7]: > 100 µM | TGI [8]: > 100 µM | TGI [9]: > 100 µM
